This note sets out measurements from patent publication US8835617B2, “Polynucleotides encoding a human TRIM-Cyp fusion polypeptide, compositions thereof, and methods of using same” (priority 2008, dated 2014).

Test [1] deals with CypA-CA interaction. The note with it: CsA 2.5 μM, CRFK; DEBIO-025 in Jurkat.
Description: All chemicals were obtained from Sigma unless otherwise noted. Puromycin was used at 1 μM. […] Arsenic trioxide (As2O3) was made at 100 mM in 1N sodium hydroxide (NaOH) and then further diluted to 1 mM in phosphate buffered saline (PBS). pH was adjusted to 7.5 with hydrochloric acid and stored at 4° C.
In test [2] the test system is T5-mediated restriction. Put plainly: Disruption of T5Cyp-mediated HIV-1 restriction by arsenic trioxide in CRFK cells. It counts as cell-based. The note with it: increasing amounts. The procedure: This drug was previously shown to inhibit T5-mediated restriction (Sebastian et al., 2006).
Puromycin was used at 1 μM.

On to `C/C=C/C[C@@H](C)[C@@H](O)[C@H]1C(=O)N[C@@H](CC)C(=O)N(C)[C@H](C)C(=O)N(CC)[C@@H](C(C)C)C(=O)N[C@@H](C(C)C)C(=O)N(C)[C@@H](CC(C)C)C(=O)N[C@@H](C)C(=O)N[C@H](C)C(=O)N(C)[C@@H](CC(C)C)C(=O)N(C)[C@@H](CC(C)C)C(=O)N(C)[C@@H](C(C)C)C(=O)N1C` [DEBIO-025], for which, in test [1], the “effect on HIV-1 restriction by AoT5Cyp and hT5Cyp” value is “Equivalent results”.
With arsenic trioxide [As2O3], in test [2], the “effect on AoT5Cyp and hT5Cyp restriction activity” value is “blocked to the same extent”.
